Source: ChEMBL document CHEMBL1141457, “N-methyl-D-aspartate antagonists and neuropathic pain: the search for relief” (2007)

Experiments:
[1] = species: Homo sapiens; assay: Reduction in post-surgical neuropathic pain intensity in cancer patient; format: functional; set-up: scale not given: the % may be the effect or the level left
[2] = species: Homo sapiens; assay: Reduction in pain intensity in diabetic neuropathy patient; format: functional; set-up: scale not given: the % may be the effect or the level left

| SMILES | Activity [1] | Activity [2] |
| --- | --- | --- |
| NC12CC3CC(CC(C3)C1)C2 [AMANTADINE] | 31% | – |
| COc1ccc2c(c1)[C@]13CCCC[C@@H]1[C@H](C2)N(C)CC3 [DEXTROMETHORPHAN] | – | 24% |
